Data on 14 compounds can be found in ChEMBL document CHEMBL4414656, “Alkaloids from the Branches and Leaves of Elaeocarpus angustifolius” (J Nat Prod, 2019).

Sequence of Cholinesterase (P06276 whole entry): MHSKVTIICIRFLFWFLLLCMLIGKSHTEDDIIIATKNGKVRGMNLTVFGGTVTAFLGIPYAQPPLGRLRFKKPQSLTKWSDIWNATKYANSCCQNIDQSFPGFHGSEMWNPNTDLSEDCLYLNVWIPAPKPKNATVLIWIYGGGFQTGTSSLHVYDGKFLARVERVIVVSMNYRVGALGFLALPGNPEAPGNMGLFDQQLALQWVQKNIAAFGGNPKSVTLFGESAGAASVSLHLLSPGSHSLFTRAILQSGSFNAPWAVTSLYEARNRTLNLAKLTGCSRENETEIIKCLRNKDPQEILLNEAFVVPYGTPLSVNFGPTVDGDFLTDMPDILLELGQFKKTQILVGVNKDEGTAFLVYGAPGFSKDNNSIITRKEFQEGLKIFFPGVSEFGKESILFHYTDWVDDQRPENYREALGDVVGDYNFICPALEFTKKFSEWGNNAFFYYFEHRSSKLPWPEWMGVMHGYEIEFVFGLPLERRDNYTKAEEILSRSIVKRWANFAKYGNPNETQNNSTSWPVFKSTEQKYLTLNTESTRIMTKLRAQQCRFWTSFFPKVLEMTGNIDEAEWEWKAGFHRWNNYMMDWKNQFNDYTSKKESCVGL

The test concerns the target Cholinesterase (Homo sapiens, UniProt P06276). The test can be described thus: Inhibition of human […] BuChE using S-butyrylthiocholine iodide as substrate preincubated for 20 mins followed by substrate addition and measured every 30 secs for 1 hr by Ellman's method. Background: DTNB colorimetry detects thiols as they appear.
As for `Cc1cccc(O)c1C(=O)C[C@@H]1CC[C@@H]2[C@H]3C(=O)c4c(C)cccc4O[C@@H]3CCN12` (racemic), the IC50 is over 50 µM.

Regarding `Cc1cccc(O)c1C(=O)C[C@@H]1CC[C@@H]2[C@H]3C(=O)c4c(C)cccc4O[C@H]3CCN12`, the IC50 is over 50 µM.

Turning to `Cc1cccc2c1C(=O)[C@@H]1[C@H]3CCC[N@+]3([O-])CC[C@H]1O2` (racemic), the IC50 was over 50 µM.

As for `Cc1cccc2c1C(=O)[C@H]1[C@H](CCN3C(=O)CC[C@H]13)O2` (racemic), the IC50 was over 50 µM.

As for `Cc1cccc2c1C(=O)CC(CCCNCCCO)O2` (racemic), the IC50 was over 50 µM.

The compound `Cc1cccc2c1C(=O)C1=C3CCCN3CCC1O2` (racemic) yielded an IC50 of 39 µM.

With `Cc1cccc(O)c1C(=O)CC1CCCN1CCCO` (racemic), the IC50 was over 50 µM.

As to `Cc1cccc2c1C(=O)[C@@H]1[C@H]3CCC[N@@+]3([O-])CC[C@H]1O2` (racemic), the IC50 is over 50 µM.

`Cc1cccc2c1C(=O)[C@H]1[C@@H](CC[N@@+]3([O-])CCC[C@@H]13)O2` (racemic) had an IC50 of 29 µM.

Turning to `Cc1cccc2c1C(=O)[C@@H]1[C@H]3CCCN3CC[C@H]1O2` (racemic), half-maximal inhibition (IC50) was put at 35 µM.

The compound `Cc1cccc2c1C(=O)[C@@H]1[C@H](CCN3C(=O)CC[C@@H]13)O2` showed a 50% inhibitory concentration (IC50) of over 50 µM.

In turn, `Cc1cccc2c1C(=O)[C@H]1[C@H](CCN3CCC[C@H]13)O2` (racemic) [ISOELAEOCARPINE] registered an IC50 of over 50 µM.

`Cc1cccc2c1C(=O)[C@@H]1[C@H]3CCC(=O)N3CC[C@H]1O2`: the IC50 is over 50 µM.

Take `Cc1cccc(O)c1C(=O)C[C@H]1CC[C@H]2[C@@H]3C(=O)c4c(C)cccc4O[C@@H]3CCN12`: the IC50 was over 50 µM.

One may read the IC50 as the concentration that inhibits the measured activity by half. High values mean a need for much substance, low ones inhibition by little substance.
